Test results: US5693620A, “Plasmalopsychosines and plasmalocerebrosides” (Oncomembrane, Inc., priority 1994, dated 1997)
“Also recorded” adds a separate entry of the source. One block for each molecule: values may come before it.

Legend:
[1] = tested on: mouse neuroblastoma Neuro-2A cells; conditions: previously reported for a ganglioside effect; cited from earlier work
[2] = Acid lability of glycolipids (aqueous HCl/methanol, TLC mobility); format: physicochemical; conditions: methanol-aqueous 0.1N HCl 1:1, 90° C., 10 min
Procedure: Acid-labile glycolipids were detected by hydrolysis of samples in methanol-aqueous 0.1N HCl (1:1, v/v) heated at 90° C. for 10 min, followed by Folch partitioning and TLC examination of lower phase. The glycolipid with high TLC mobility converting to the same mobility as normal cerebroside by this treatment was regarded as the acid-labile cerebroside.

[3] = Cytotoxicity and growth inhibition in neuroblastoma cell lines; format: cell-based; conditions: various neuroblastoma cell lines; read-out: concentration at which cell growth was inhibited, morphology changed and cells eventually died
neuroblastoma cell lines = experiment: as above; format: cell-based; conditions: various neuroblastoma cell lines

Molecule: GT1b
- concentration required for ganglioside effect on neurite formation [1]: 200 µg/mL

- TLC mobility after acid hydrolysis [2]: did not show altered TLC mobility
Molecule: CCCCCCCCCCCCCCC[C@@H](O)C(=O)N[C@@H](CO[C@@H]1O[C@H](CO)[C@@H](O)[C@H](O)[C@H]1O)[C@H](O)/C=C/CC/C=C(\C)CCCCCCCCC [Cerebroside]

Molecule: CCCCCCCCCCCCC/C=C/[C@@H](O)[C@@H](N)CO[C@@H]1O[C@H](CO)[C@H](O)[C@H](O)[C@H]1O [psychosine, galactosylsphingosine]
- MCC [3]: 10 to 20 µg/mL
- cytotoxic effect / growth inhibition (in words) (neuroblastoma cell lines): strong cytotoxic effect; also recorded: cytotoxic effects and inhibited cell growth even at very low doses
